The source of these data is patent publication US7335770B2, “Triazine compounds and their analogs, compositions, and methods” (Reddy U5 Therapeutics, Inc., priority 2004, dated 2008).

For the test, the system named is smooth muscle cells (SMC). Briefly: anti-proliferation assay (perlecan). Type of test: cell-based. Conditions: for pIC50: anti-proliferation assay (perlecan); for activity in anti-proliferation assay (Perlecan), in words: using the same activity scale used in Table 3. The method, then: The activity scale used in Table 3 as follows (numbers are inclusive): “+++” represents IC50 of less than about 3 μM; “++” represents IC50 of between about 3 and about 7 μM; and “+” represents IC50 of greater than about 7 μM. In addition, compounds, to include compositions thereof, encompassed within the scope of structures Ia-XXIVa, respectively, or listed in Tables 1A and 1E may be likewise employed in this embodiment and/or aspect of the present invention. Further, any hydrogen atoms that are required for any atom to attain its usual valence in a structure presented in Table 3, whether a carbon atom or a heteroatom, should be inferred if it is not specifically indicated.
In addition to the above compounds, the following compounds and compositions comprising these compounds are active in an anti-proliferation assay (Perlecan). These compounds and compositions comprising these compounds are, among other things, generally useful for treating cardiovascular disorders associated with proliferative activity. Specifically, these compounds include N^2-cycloheptyl-N^4-(3-fluoro-4-methoxyphenyl)-N^6-methyl-N^6-(1-methyl-piperidin-4-yl)-1,3,5-triazine-2,4,6-triamine, and N^2-cycloheptyl-N^4-methyl-N^4-(1-methyl-piperidin-4-yl)-N^6-naphthalen-2-yl-1,3,5-triazine-2,4,6-triamine.
Methods for identifying the activity and screening for one or more of these compounds or molecules that induce synthesis of proteoglycans such as HSPG (heparan sulfate proteoglycan) are taught in U.S. patent application Ser. No. 10/091,357, which is incorporated herein in its entirety. Assays of effects of compounds in vivo are also taught in the incorporated references and are known to those skilled in the art. In general, methods comprise the addition of such compounds to assays and measurement of HSPG synthesis including, but not limited to, the production of syndecans, glypicans and perlecans, for example, syndecans 1, 2 and 4; and glypican-1. Other assays that can be used to determine the activity of the compounds of the present invention include other methods for measuring the induction of perlecan synthesis. For example, in one assay, perlecan is induced in cells by certain inducers, and the response is measured. Compounds of the present invention are then added to a replicate assay and the effect on perlecan induction is determined. Using such methods, compounds are determined that can either inhibit perlecan, elevate induction of perlecan, or that have no effect at all. Those compounds that are effective as therapeutic agents can then be used in animals, humans or patients with cellular proliferation disease aspects, such as vascular-associated diseases or SMC proliferation pathologies.
Another assay for determining compounds having SMC effects comprises adding a composition suspected of affecting SMC proliferation to smooth muscle cells in growth medium or serum-free medium. The change in cell proliferation can be measured by methods known to those skilled in the art, such as incorporation of labeled nucleotides into dividing cells' DNA, and compared to the proliferation of cells which are not treated with the compound. Other measurements include directly determining levels of HSPG synthesis by measuring the amount or change in amount of HSPG such as with ELISA for HSPGs, and compared to the amount of HSPG synthesis in untreated cells. Other indirect or direct measurement are contemplated by the present invention and are known to those skilled in the art. For example, such methods include, but are not limited to, measurement of RNA levels, RT-PCR, Northern blotting, Western blotting promoter-based assays to identify compounds that affect one or more proteoglycans and assays for proteoglycan biological activity shown by recombinant proteins, partially purified proteins, or lysates from cells expressing proteoglycans in the presence or absence of compounds of interest.

Where [1] appears, read: class of IC50, read-out: Activity (note 1).
Setting [2] is: some cells print no unit, read-out: Avg IC-50.

Structures are written as SMILES. pIC50: −log10 of the molar value. Like-named read-outs stand apart in the source and are kept apart here.

For the molecule `CCN1CCCC1CNc1nc(NC2CCCCCC2)nc(NC2CCC(O)CC2)n1` (stereo not shown) [drawing 599, 4-{4-Cycloheptylamino-6-[(1-eth-yl-pyrrolidin-2-ylmethyl)-amino]-[1,3,5]triazin-2-ylamino}-cyclo-hexanol], the pIC50 is 5.15 to 5.52 under setting [1] and 5.39 under setting [2].

As to `COc1ccc(Nc2nc(NC3CCCCCC3)nc(N(C)C3CCN(C)CC3)n2)cc1F` [N^2-cycloheptyl-N^4-(3-fluoro-4-methoxyphenyl)-N^6-methyl-N^6-(1-methyl-piperidin-4-yl)-1,3,5-triazine-2,4,6-triamine], the “activity in anti-proliferation assay (Perlecan), in words” value (“activity in anti-proliferation assay” below) is given as “medium or moderate activity”.

As to `COc1ccc(Nc2nc(NC3CCCCCC3)nc(Oc3cccnc3)n2)cc1Cl` [N-(3-Chloro-4-methoxy-phenyl)-N′-cycloheptyl-6-(pyridin-3-yloxy)-[1,3,5]triazine-2,4-diamine], the “activity in anti-proliferation assay” value is “high activity”.

As to `COc1ccc(Nc2nc(NC3CCCCCC3)nc(OCC3CCCN3C)n2)cc1Cl` (stereo not shown) [drawing 575, N-(3-Chloro-4-methoxy-phenyl)-N′-cyclo-heptyl-6-(1-methyl-pyr-rolidin-2-ylmethoxy)-[1,3,5]tri-azine-2,4-diamine], the pIC50 under setting [1] was 5.15 to 5.52 and the pIC50 under setting [2] is 5.30.

For the molecule `COc1ccc(Nc2nc(NC3CCCCCC3)nc(Oc3ccc(C(C)=O)cc3)n2)cc1Cl` [1-{4-[4-(3-Chloro-4-methoxy-phenylamino)-6-cycloheptylamino-[1,3,5]triazin-2-yloxy]-phenyl}-ethanone], the “activity in anti-proliferation assay” value is “high activity”.

Regarding `COc1ccc(Nc2nc(NC3CCCCCC3)nc(OCC3CCCN3C)n2)cc1Cl` (stereo not shown) [N-(3-Chloro-4-methoxy-phenyl)-N′-cycloheptyl-6-(1-methyl-pyrrolidin-2-ylmethoxy)-[1,3,5]triazine-2,4-diamine], the “activity in anti-proliferation assay” value is “high activity”.

For the molecule `Clc1nc(Cl)nc(NC2CCCCCC2)n1` [Cycloheptyl-(4,6-dichloro-[1,3,5]tri-azin-2-yl)-amine], the pIC50 was 5.15 to 5.52 under setting [1] and 5.43 under setting [2].

As for `CCN1CCCC1CNc1nc(Nc2ccc(OC)c(F)c2)nc(N2CCN(CC(=O)N3CCCC3)CC2)n1.Cl.Cl` (stereo not shown), the “activity in anti-proliferation assay” value is reported as “high activity”.

Take `COc1ccc(Nc2nc(NC3CCCCCC3)nc(-c3c(O)ccc4ccccc34)n2)cc1Cl` [1-[4-(3-Chloro-4-methoxy-phenylamino)-6-cycloheptylamino-[1,3,5]triazin-2-yl]-naphthalen-2-ol]: the “activity in anti-proliferation assay” value is “high activity”.

Regarding `COc1ccc(Nc2nc(NC3CCCCCC3)nc(Oc3cccc(C)n3)n2)cc1Cl` [N-(3-Chloro-4-methoxy-phenyl)-N′-cycloheptyl-6-(6-methyl-pyridin-2-yloxy)-[1,3,5]triazine-2,4-diamine], the “activity in anti-proliferation assay” value is “high activity”.

`COc1ccc(-c2nc(Nc3ccc(OC)c(Cl)c3)nc(NC3CCCCCC3)n2)c(OC)c1` [N-(3-Chloro-4-methoxy-phenyl)-N′-cycloheptyl-6-(2,4-dimethoxy-phenyl)-[1,3,5]triazine-2,4-diamine]: the “activity in anti-proliferation assay” value is “high activity”.

Turning to `CCN1CCCC1CNc1nc(Nc2ccc(OCc3ccccc3)c(Cl)c2)nc(NC2CCCCCC2)n1` (stereo not shown) [N-(4-Benzyloxy-3-chloro-phenyl)-N′-cycloheptyl-N″-(1-ethyl-pyrrolidin-2-ylmethyl)-[1,3,5]triazine-2,4,6-triamine], the “activity in anti-proliferation assay” value is recorded as “high activity”.

Turning to `CCN1CCCC1CNc1nc(NC2CCCCCC2)nc(NC2CCC(O)CC2)n1` (stereo not shown) [4-{4-Cycloheptylamino-6-[(1-ethyl-pyrrolidin-2-ylmethyl)-amino]-[1,3,5]triazin-2-ylamino}-cyclohexanol], the “activity in anti-proliferation assay” value is listed as “high activity”.

With `COc1cc(OC)c(-c2nc(Nc3ccc(OC)c(Cl)c3)nc(NC3CCCCCC3)n2)c(OC)c1` [N-(3-Chloro-4-methoxy-phenyl)-N′-cycloheptyl-6-(2,4,6-trimethoxy-phenyl)-[1,3,5]triazine-2,4-diamine], the “activity in anti-proliferation assay” value is on record as “high activity”.

With `COc1ccc(Nc2nc(NC3CCCCCC3)nc(OC3CCN(C)CC3)n2)cc1Cl` [drawing 576, N-(3-Chloro-4-methoxy-phenyl)-N′-cyclo-heptyl-6-(1-methyl-piper-idin-4-yloxy)-[1,3,5]triazine-2,4-di-amine], the pIC50 under setting [1] is 5.15 to 5.52 and the pIC50 under setting [2] was 5.24.

Take `COc1ccc(Nc2nc(NC3CCCCCC3)nc(Oc3ccc(C#CC(C)(C)O)cc3)n2)cc1Cl` [drawing 579, 4-{4-[4-(3-Chloro-4-methoxy-phenyl-amino)-6-cyclo-heptylamino-[1,3,5]triazin-2-yl-oxy]-phenyl}-2-methyl-but-3-yn-2-ol]: the pIC50 is, setting by setting: under setting [1], above 5.52; under setting [2], 5.72.

With `COc1ccc(Nc2nc(NC3CCCCCC3)nc(Oc3ccc(C=O)cc3)n2)cc1Cl` [drawing 582, 4-[4-(3-Chloro-4-methoxy-phenyl-amino)-6-cyclo-heptylamino-[1,3,5]triazin-2-yl-oxy]-benzaldehyde], the pIC50 is 5.15 to 5.52 under setting [1] and 5.35 under setting [2].

Consider `COc1ccc(Nc2nc(NC3CCCCCC3)nc(OCC3CCCO3)n2)cc1Cl` (stereo not shown) [drawing 586, N-(3-Chloro-4-methoxy-phenyl)-N′-cyclo-heptyl-6-(tetrahydro-furan--2-ylmethoxy)-[1,3,5]tri-azine-2,4-diamine], for which the pIC50 under setting [1] is above 5.52 and the pIC50 under setting [2] is 5.90.

On to `CN1CCC(N(C)c2nc(Nc3cccc([N+](=O)[O-])c3)nc(NC3CCCCCC3)n2)CC1` [drawing 593, N-Cycloheptyl-N′-methyl-N′-(1-meth-yl-piperidin-4-yl)-N″-(3-ni-tro-phenyl)-[1,3,5]triazine-2,4,6-tri-amine], for which the pIC50 was above 5.52 under setting [1] and 6.04 under setting [2].

Consider `COc1ccc(Nc2nc(NC(C)C)nc(Oc3ccc(C#CC(C)(C)O)cc3)n2)cc1Cl` [drawing 584, 4-{4-[4-(3-Chloro-4-methoxy-phenyl-amino)-6-isopropylamino-[1,3,5]tri-azin-2-yloxy]-phenyl}-2-meth-yl-but-3-yn-2-ol], for which the pIC50 is 5.15 to 5.52 under setting [1] and 5.47 under setting [2].

Regarding `CCOc1nc(Nc2ccc(OC)c(F)c2)nc(NC2CCCCCC2)n1` [N-Cycloheptyl-6-ethoxy-N′-(3-fluoro-4-methoxy-phenyl)-[1,3,5]triazine-2,4-diamine], the “activity in anti-proliferation assay” value is “high activity”.

As to `COc1ccc(Nc2nc(NC3CCCCCC3)nc(Sc3ccc(F)cc3)n2)cc1Cl` [N-(3-Chloro-4-methoxy-phenyl)-N′-cycloheptyl-6-(4-fluoro-phenylsulfanyl)-[1,3,5]triazine-2,4-diamine], the “activity in anti-proliferation assay” value is recorded as “high activity”.

For `COc1ccc(Nc2nc(NNC(=O)CCCCC3SCC4NC(=O)NC43)nc(NC3CCCCCC3)n2)cc1Cl` (stereo not shown) [5-(2-Oxo-hexahydro-thieno[3,4-d]imidazol-4-yl)-pentanoic acid N′-[4-(3-chloro-4-methoxy-phenylamino)-6-cycloheptylamino-[1,3,5]triazin-2-yl]-hydrazide], the “activity in anti-proliferation assay” value is “high activity”.

For `CCN1CCCC1CNc1nc(Nc2ccc(C)c(F)c2)nc(NC2CCCCCC2)n1` (stereo not shown) [N-Cycloheptyl-N′-(1-ethyl-pyrrolidin-2-ylmethyl)-N″-(3-fluoro-4-methyl-phenyl)-[1,3,5]triazine-2,4,6-triamine], the “activity in anti-proliferation assay” value was “high activity”.

For the molecule `CCOC(=O)/C=C/c1ccc(Oc2nc(Nc3ccc(OC)c(Cl)c3)nc(NC3CCCCCC3)n2)cc1` [3-{4-[4-(3-Chloro-4-methoxy-phenylamino)-6-cycloheptylamino-[1,3,5]triazin-2-yloxy]-phenyl}-acrylic acid ethyl ester], the “activity in anti-proliferation assay” value is listed as “high activity”.
